ChEMBL document CHEMBL1122533 (J Med Chem, 1984)
Peptide text beside a SMILES is read from it. * marks the point of attachment. Cbz = O=C(OCc1ccccc1)*; Boc = CC(C)(C)OC(=O)*

Experiments:
[1] = system: Rattus norvegicus; assay: Compound was tested for the in vivo antagonist activity calculated from ED50 value, by estimating at 25 mL the mean blood volume in a 300-g rat and expressed as molarity; type: functional
[2] = system: Rattus norvegicus; assay: In vivo antagonistic effect on gastric acid secretion in the perfused rat stomach; type: functional

Structure (SMILES)	Activity [1]	ED50 [2]
CSCC[C@H](NC(=O)[C@H](Cc1c[nH]c2ccccc12)NC(=O)CNC(=O)OC(C)(C)C)C(=O)N[C@@H](CC(=O)O)C(N)=O (Boc-GWMD-NH2)	0.0001	5 mg/kg
CSCC[C@H](NC(=O)[C@H](Cc1c[nH]c2ccccc12)NC(=O)OC(C)(C)C)C(=O)N[C@@H](CC(=O)O)C(N)=O (Boc-Trp-Met-Asp-NH2)	0.00016	7.5 mg/kg
CSCC[C@H](NC(=O)[C@H](Cc1c[nH]c2ccccc12)NC(=O)CNC(=O)[C@H](Cc1ccc(O)cc1)NC(=O)OC(C)(C)C)C(=O)N[C@@H](CC(=O)O)C(N)=O (Boc-YGWMD-NH2)	3.1e-05	2 mg/kg
CSCC[C@H](NC(=O)[C@H](Cc1c[nH]c2ccccc12)NC(=O)CNC(=O)[C@H](Cc1ccc(O)cc1)NC(=O)[C@H](C)NC(=O)[C@H](CCC(=O)O)NC(=O)OCc1ccccc1)C(=O)N[C@@H](CC(=O)O)C(N)=O (Cbz-EAYGWMD-NH2)	1.8e-05	1.5 mg/kg
